Measured values as given in patent US20080058330A1, “Compounds and Combinations Thereof for Inhibiting Beta-Amyloid Production and Methods of Use Thereof” (Roskamp Research LLC, priority 2006, published 2008).

Experiments:
7W WT APP751 CHO cells = assay: Screening of dihydropyridine compounds (Maybridge), Aβ1-40 and Aβ1-42 ELISA (Example 2); assay type: cell-based, Chinese hamster; conditions: 30 μM, 24 hours (FIG. 5A, 5B)
Experimental: Dihydropyridine compounds were obtained from Maybridge (England). Each compound was dissolved in DMSO. 7W WT APP751 CHO cells overexpressing APP751 were plated into 96-well culture plates in 200 μL of culture medium. Each compound from the library was added to confluent cells to a final concentration of 30 μM. After 24 hours of treatment, culture medium was collected and dissolved 10-fold and 2-fold for measuring the level of Aβ1-40 and Aβ1-42, respectively. Aβ1-40 and Aβ1-42 were determined using commercially available ELISAs (Biosource, CA), following the recommendations of the manufacturer.

| melting point | Structure (SMILES) | concentration of Aβ1-40 compared to controls (7W WT APP751 CHO cells) | concentration of total β-amyloid (Aβ1-40+Aβ1-42) compared to controls (7W WT APP751 CHO cells) | concentration of Aβ1-42 compared to controls (7W WT APP751 CHO cells) |
| --- | --- | --- | --- | --- |
| 120 to 121 °C | CCOC(=O)C1=C(C)NC(C)=C(C(=O)OCC)C1c1ccccc1Cl [Example 6, Diethyl 4-(2-chlorophenyl)-1,4-dihydro-2,6-dimethylpyridine-3,5-dicarboxylate] | – | – | – |
| 196 to 197 °C | CC(=O)C1=C(C)NC(C)=C(C(C)=O)C1c1ccccc1Cl [Example 7, 4-(2-Chlorophenyl)-1,4-dihydro-2,6-dimethylpyridine-3,5-di(2-ethanone)] | – | – | – |
| 188 to 189 °C | COC(=O)C1=C(C)NC(C)=C(C(=O)OC)C1c1ccccc1Cl [Example 8, Dimethyl 4-(2-chlorophenyl)-1,4-dihydro-2,6-dimethylpyridine-3,5-dicarboxylate] | – | – | – |
| 194 to 196 °C | CC1=C(C(=O)OC(C)(C)C)C(c2ccccc2Cl)C(C(=O)OC(C)(C)C)=C(C)N1 [Example 9, Di-tert-butyl 4-(2-chlorophenyl)-1,4-dihydro-2,6-dimethylpyridine-3,5-dicarboxylate] | – | – | – |
| – | CCOC(=O)C1=C(C)NC(C)=C(C(=O)OCC)C1c1ccccc1[N+](=O)[O-] [JFD 03311, diethyl 2,6-dimethyl-4-(2-nitrophenyl)-1,4-dihydropyridine-3,5-dicarboxylate] | significantly decreased | significantly decreased | – |
| – | CCOC(=O)C1=C(C)NC(C)=C(C(=O)OCC)C1c1ccc(F)cc1 [JFD 03318, diethyl 4-(4-fluorophenyl)-2,6-dimethyl-1,4-dihydropyridine-3,5-dicarboxylate] | significantly decreased | significantly decreased | significantly decreased |
| – | O=C1CC(c2ccccc2)CC(=O)N1c1ccc(Oc2ccc(Cl)cc2)cc1 [PD 00463, 1-[4-(4-chlorophenoxy)phenyl]-4-phenyldihydropyridine-2,6(1H,3H)-dione] | significantly decreased | significantly decreased | significantly decreased |
| – | CCOC(=O)C1=C(C)NC(C)=C(C(=O)OCC)C1c1ccc(Cl)cc1Cl [RJC 03403, diethyl 4-(2,4-dichlorophenyl)-2,6-dimethyl-1,4-dihydro-3,5-pyridinedicarboxylate] | significantly decreased | significantly decreased | significantly decreased |
| – | CCOC(=O)C1=C(C)NC(C)=C(C(=O)OCC)C1c1ccc(-c2ccccc2C(F)(F)F)o1 [RJC 03405, diethyl 2,6-dimethyl-4-{5-[2-(trifluoromethyl)phenyl]-2-furyl}-1,4-dihydro-3,5-pyridinedicarboxylate] | significantly decreased | significantly decreased | – |
| – | CCOC(=O)C1=C(C)NC(C)=C(C(=O)OCC)C1c1ccc(OC)cc1Cl [RJC 03413, diethyl 4-(2-chloro-4-methoxyphenyl)-2,6-dimethyl-1,4-dihydro-3,5-pyridinedicarboxylate] | significantly decreased | significantly decreased | – |
| – | COC(=O)C1=C(C)NC(C)=C(C(=O)OC)C1c1ccc(-c2ccsc2C(=O)OC)o1 [SEW 02070, dimethyl 4-{5-[2-(methoxycarbonyl)-3-thienyl]-2-furyl}-2,6-dimethyl-1,4-dihydropyridine-3,5-dicarboxylate] | significantly decreased | significantly decreased | – |
| – | CCOC(=O)C1=C(C)NC(C)=C(C(=O)OCC)C1c1cccc([N+](=O)[O-])c1 [XBX 00343, diethyl 2,6-dimethyl-4-(3-nitrophenyl)-1,4-dihydropyridine-3,5-dicarboxylate] | significantly decreased | significantly decreased | – |
